Usually inhibition stands for the change of the read-out against control, counted positive when it falls. Read a low inhibition as little suppression. One may read the Km as the concentration of substrate that gives half-maximal velocity.

One data set deals with T1, OAT1 (Homo sapiens, UniProt Q4U2R8).
T1 sequence (Q4U2R8 1-563): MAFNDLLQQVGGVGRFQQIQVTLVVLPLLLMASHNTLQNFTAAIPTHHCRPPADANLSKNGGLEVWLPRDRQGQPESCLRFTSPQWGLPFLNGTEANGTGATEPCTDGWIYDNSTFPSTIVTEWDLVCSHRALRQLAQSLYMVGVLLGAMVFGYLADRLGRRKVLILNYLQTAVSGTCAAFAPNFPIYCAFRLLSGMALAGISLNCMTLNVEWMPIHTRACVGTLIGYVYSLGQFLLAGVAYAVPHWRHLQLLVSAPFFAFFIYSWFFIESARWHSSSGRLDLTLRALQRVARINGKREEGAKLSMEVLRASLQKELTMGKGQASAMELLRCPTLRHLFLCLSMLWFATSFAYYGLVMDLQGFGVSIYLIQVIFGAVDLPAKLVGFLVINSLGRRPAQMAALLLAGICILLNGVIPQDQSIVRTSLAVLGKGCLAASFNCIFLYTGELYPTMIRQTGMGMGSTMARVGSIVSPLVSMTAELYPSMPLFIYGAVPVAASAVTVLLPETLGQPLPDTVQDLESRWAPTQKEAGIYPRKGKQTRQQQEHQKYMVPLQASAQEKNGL
Particulars: cited from earlier work.

The next data set has as its target T2, OATP1B3 (Homo sapiens, UniProt Q9NPD5).
T2 sequence (Q9NPD5 1-702): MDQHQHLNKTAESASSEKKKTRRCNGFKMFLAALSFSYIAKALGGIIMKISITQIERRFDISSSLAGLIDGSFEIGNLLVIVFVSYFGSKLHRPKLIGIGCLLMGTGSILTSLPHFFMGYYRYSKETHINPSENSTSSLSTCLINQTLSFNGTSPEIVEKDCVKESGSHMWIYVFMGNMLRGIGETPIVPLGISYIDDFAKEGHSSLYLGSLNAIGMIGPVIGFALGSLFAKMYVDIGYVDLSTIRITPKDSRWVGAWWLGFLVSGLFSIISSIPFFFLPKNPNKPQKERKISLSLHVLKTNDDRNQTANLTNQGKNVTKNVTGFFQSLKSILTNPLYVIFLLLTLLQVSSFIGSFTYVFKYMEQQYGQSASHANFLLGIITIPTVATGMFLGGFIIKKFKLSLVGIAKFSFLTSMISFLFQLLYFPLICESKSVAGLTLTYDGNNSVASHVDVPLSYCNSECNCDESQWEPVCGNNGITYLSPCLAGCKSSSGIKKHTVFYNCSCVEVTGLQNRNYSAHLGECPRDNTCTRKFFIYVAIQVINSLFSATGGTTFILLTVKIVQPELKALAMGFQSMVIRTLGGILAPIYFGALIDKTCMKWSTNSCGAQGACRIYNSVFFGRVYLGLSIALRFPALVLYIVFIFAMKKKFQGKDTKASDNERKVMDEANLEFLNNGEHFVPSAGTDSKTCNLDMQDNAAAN
Conditions: cited from earlier work.

In data set [1] the target is T3, OAT3 (Homo sapiens, UniProt Q8TCC7).
T3 sequence (Q8TCC7 1-542): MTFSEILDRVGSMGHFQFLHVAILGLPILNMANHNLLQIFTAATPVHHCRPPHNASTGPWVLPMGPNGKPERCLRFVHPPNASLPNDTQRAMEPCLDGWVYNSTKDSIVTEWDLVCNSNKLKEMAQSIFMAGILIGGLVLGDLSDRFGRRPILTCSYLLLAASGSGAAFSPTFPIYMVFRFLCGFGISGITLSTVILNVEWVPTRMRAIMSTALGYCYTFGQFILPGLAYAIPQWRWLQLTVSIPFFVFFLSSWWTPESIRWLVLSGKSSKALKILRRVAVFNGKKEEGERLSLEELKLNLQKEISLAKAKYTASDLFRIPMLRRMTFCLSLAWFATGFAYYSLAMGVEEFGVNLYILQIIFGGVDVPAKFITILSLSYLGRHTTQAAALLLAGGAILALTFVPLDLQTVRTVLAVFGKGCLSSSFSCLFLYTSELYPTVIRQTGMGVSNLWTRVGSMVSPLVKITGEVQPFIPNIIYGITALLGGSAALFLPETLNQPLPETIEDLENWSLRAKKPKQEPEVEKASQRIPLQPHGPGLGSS
Conditions: cited from earlier work.

The target in data set [2] is T3, OAT3. Particulars: 10 μM catalposide, HEK293-OAT3.
The target in data set [3] is T3, OAT3. Put plainly: in vitro. Conditions: HEK293 cells transiently expressing OAT3, probe catalposide 10 μM.
The test system of the next data set is OATP2B1. Particulars: cited from earlier work.
Substrate in data set [4]: O=C(O[C@H]1[C@@H]2C=CO[C@@H](O[C@@H]3O[C@H](CO)[C@@H](O)[C@H](O)[C@H]3O)[C@@H]2[C@@]2(CO)O[C@@H]12)c1ccc(O)cc1
Put plainly: Uptake in HEK293 cells overexpressing OAT3. The format is in vitro ADME. Particulars: other: OAT3-mediated uptake, 2–500 μM catalposide, 10 minutes; 37.0 °C.

Entries after “also recorded” stand apart in the source; their conditions may differ. Where two headings read alike, the source gives them in different places.

With `O=c1cc(-c2ccccc2)oc2cc(O)c(O)c(O)c12` [Bicalein], at OAT1, the “Inhibition of OAT1 transport activity” value was “significantly inhibited”. The “Inhibition of OATP1B3 transport activity” value at OATP1B3 is recorded as “significantly inhibited”. For the same molecule, the “Inhibition of OAT3 transport activity” value at OAT3 [1] is given as “significantly inhibited”.

`CN/C(=N/CCSCc1nc[nH]c1C)NC#N` [cimetidine]: the “Effect on OAT3-mediated catalposide uptake (words)” value at OAT3 [2] is “decreased to basal levels”; on OAT3 [2] (listed as Cimetidine), “inhibited OAT3-mediated catalposide transport in a concentration-dependent manner”. The same molecule registered an inhibition at 10 min, 100 μM at OAT3 [3] of 70.4%.

Regarding `COc1ccc(-c2oc3c(CC=C(C)C)c(O[C@@H]4O[C@H](CO)[C@@H](O)[C@H](O)[C@H]4O)cc(O)c3c(=O)c2O[C@@H]2O[C@@H](C)[C@H](O)[C@@H](O)[C@H]2O)cc1` [icariin], the “Inhibition of OATP1B3 activity” value on OATP1B3 is reported as “potentially inhibited”. For the same molecule, the “Inhibition of OATP2B1 activity” value with OATP2B1 was “potentially inhibited”.

For the molecule `CCCN(CCC)S(=O)(=O)c1ccc(C(=O)O)cc1` [probenecid], the “Effect on OAT3-mediated catalposide uptake (words)” value at OAT3 [2] is listed as “decreased to basal levels; also recorded: inhibited OAT3-mediated catalposide transport in a concentration-dependent manner”. The same molecule had an inhibition at 10 min, 10 μM against OAT3 [3] of 84.5%.

With `COc1c(O)cc(O)c2c(=O)cc(-c3ccccc3)oc12` [wogonin], the “Inhibition of OAT1 transport activity” value at OAT1 is recorded as “significantly inhibited”. Further, at OATP1B3, the “Inhibition of OATP1B3 transport activity” value is “significantly inhibited”. For the same molecule, the “Inhibition of OAT3 transport activity” value at OAT3 [1] is listed as “significantly inhibited”.

B1: OAT3 (Homo sapiens) (protein)
chain: T3 sequence (Q8TCC7 1-542)
As to B1, the Km in data set [4] is 41.5 µM.

The record behind these values is publication PMC4310350 (Drug Design, Development and Therapy, 2015).
